Data published in patent US20240150396A1 (The Texas A&M University System, priority 2021, published 2024).
Read-outs that look alike come from different tables or passages of the source. Non-standard residues stand in square brackets, D forms with d. Residues, ends and D or L forms follow the SMILES beside them. *: point of attachment. Phe(2-OMe) = COc1ccccc1C[C@H](N)C(=O)O; hPhe = N[CH](CCc1ccccc1)C(=O)O; AMC = Cc1cc(=O)oc2cc(N*)ccc12; Cbz = O=C(OCc1ccccc1)*

Experiments:
cruzain [1] = target: T1, cruzain (Trypanosoma cruzi, UniProt P25779); test: biochemical; conditions: pH 7.5
Procedure: All enzyme assays were performed at 25° C. Initial rates of the peptidolytic reaction catalyzed by cruzain were measured by monitoring the fluorescence generated by cleavage of the dipeptide-AMC bond. Assays were conducted in 96-well plates (Greiner; flat-bottom, clear black plates) in a total volume of 250 μL, containing either 50 mM MES (pH 7.5), 50 mM TAPSO, 100 mM DEA, 1 mM CHAPS, 1 mM Na2EDTA, 5 mM DTT, and 10% DMSO (v/v) or 50 mM sodium acetate (pH 5.5), 50 mM MES, 100 mM TEA, 1 mM CHAPS, 1 mM Na2EDTA, 5 mM DTT, and 10% DMSO (v/v). Substrates were dissolved in 100% DMSO and were then diluted 10-fold such that when added to reaction mixtures, final DMSO concentration was 10% (v/v). […] Fluorescence was measured on either a SpectraMax M5 (Molecular Devices) or a Synergy HTX (BioTek, Winooski, VT) microplate reader (λex=360 nm, λem=460 nm). Initial rates were determined from continuous kinetic time courses and calculated from the earliest time points, typically at less than 10 min.
(2) Enzyme and compound were preincubated over extended periods of time, and then aliquots were removed and diluted 50-fold to 100-fold into reaction mixtures containing 10 μM Cbz-Phe-Arg-AMC, followed by the assessment of the resulting time courses.
Data for time-dependent inhibition were fitted by several methods.
Values of kobs versus [inhibitor] were then replotted and fitted to eq 4 for which k3 and k4 represent the respective rates of formation and dissolution of the EI* complex as depicted in FIG. 9.
In addition, time-course data were fitted globally by two methods. First, expressions for vs, vi, and kobs were substituted into eq 3 to generate eq 6, which was used to fit time-course data at all concentrations of inhibitors simultaneously. Second, time-course data were fitted using KinTek Explorer as either a single-binding step model with the two kinetic parameters k3/Ki and k4 or a two-step binding mechanism as shown in FIG. 9 from which rate constants k1-k4 are determined (Supporting Information).
Enzyme Assays. The preparation of cruzain and 3CL^pro were described in previous publications.^8, 34 The evaluation of inhibitors was modified from our lab protocol and described briefly as follows.^35 All enzyme assays were conducted in 96-well, clear bottom, black plates at 25° C., and fluorescence emanating from product formation was measured using either a SpectraMax M5 (Molecular Devices) or a Synergy HTX (Biotek) microplate reader, with excitation at λex=360 nm and emission at λem=460 nm. […] Reactions were started with addition of enzyme (typically, to a final concentration of 0.2 nM for cruzain or 40 nM for 3CL^pro), and the time courses were recorded for 0.5-1 h.
Kinetic Data Analysis. All time-course data were fitted to eq. 1, wherein P is the fluorescence generated by formation of AMC or liberated ACC, C is the background constant, vi and vs are respectively initial-state and steady-state reaction rates, t is time, and kobs is the observed rate of conversion of the initial inhibited rate to the final inhibited rate.^46
Overall inhibition constants (Ki* values) were obtained by fitting vs/v0 to eq. 4, wherein vs and v0 are steady-state reaction rates in the presence and absence of inhibitor respectively, [S] and [I] represent the fixed concentration of substrate and variable inhibitor, Km is the Michaelis constant of the substrate.

human cathepsin L = human cathepsin L (Homo sapiens (Human), UniProt P07711); test: Human cathepsin L inhibition, Z-FR-AMC assay; format: biochemical
Procedure: (§1) Recombinant human cathepsins B and L were purchased from Millipore Sigma and used without further treatment. The solid proteins were dissolved into a solution of 50 mM sodium acetate (pH 5.5), 1 mM EDTA, 1 mM CHAPS, 10% (v/v) DMSO, and 5 mM DTT to final concentrations of […] in 20-mL aliquots, and stored at −80° C. until needed. These samples were then diluted into the same buffer to concentrations of −100 nM, and these dilutions were stored at 4° C. and used daily until depletion.
(§2) For assays of cathepsin L and B, inhibitors were evaluated in 0.25-mL reaction mixtures containing a buffer of sodium acetate (pH 5.5), 1 mM CHAPS, 1 mM Na2EDTA, and 5 mM DTT at 25° C. The fluorogenic substrate Cbz-Phe-Arg-7-amino-4-methyl-coumarin (Z-FR-AMC) was dissolved in 100% DMSO, as were all inhibitors, and aliquots of both substrates and inhibitors were added to reaction mixtures to final concentrations of DMSO of 10% (v/v). […] Formation of the fluorescent product AMC was monitored over 30-60-minute time courses for reaction mixtures in 96-well black microplates (Corning Costar®). Rates of peptidolysis of the dipeptide-AMC substrate(s) were measured on either a SpectraMax M5 (Molecular Devices) or a Synergy HTX (Biotek, Wisnooki, VT) microplate reader with λex=360 nm, λem=460 nm in ≥8-sec intervals. Control samples excluded substrate. The measured relative fluorescence units (RFUs) of generated AMC were converted to reaction rates of μM/s by use of a standard curve of known AMC concentrations obtained for both plate readers.

human cathepsin B = human cathepsin B (Homo sapiens (Human), UniProt P07858); test: Human cathepsin B inhibition, Z-FR-AMC assay; format: biochemical
Procedure: as §1, §2

SARS-CoV-2 3CL protease = SARS-CoV-2 3CL protease (Severe acute respiratory syndrome coronavirus 2 (2019-nCoV) (SARS-CoV-2), UniProt P0DTD1); test: biochemical; format: biochemical; conditions: read-out: Ki* 3CLpro
[2] = tested on: T. cruzi (Ca-I/72) in C2C12 murine cardiomyoblasts; test: T. cruzi-infected murine cardiomyoblasts (C2C12); format: cell-based, Trypanosoma cruzi; conditions: read-out: EC50 T. cruzi-infected cardiomyoblasts
Procedure: For the evaluation of the antitrypanocidal activity of cruzain inhibitors, we infected a C2C12 mouse cardiomyoblast cell line (ATCC CRL-1772) with T. cruzi strain Ca-I/72 (a gift from James Dvorak, National Institutes of Health) in […] plates. […] The plates were incubated at 37° C. for 48 h, and the wells were fixed with 2% paraformaldehyde in PBS and stained with 5 μg mL-1 4,6-diamidino-2-phenylindole. After at least 30 min of incubation at room temperature in the dark, the plates were read in an automated microscope, ImageXpress Micro XL (Molecular Devices), and the images were analyzed by custom-built software to quantify and assess viability of the parasites, as well as the host cells independently. The compilation of data was used to calculate the antiparasitic activity (EC50) and host cytotoxicity (CC50).
T. cruzi infection was evaluated in C2C12 murine cardiomyoblast cells. 384-microwell plates containing C2C12 murine cardiomyoblast cells were infected with 10^3 and 10^4 cells of T. cruzi (Ca-I/72), to which was added 3-fold serially-dilutions of inhibitor with maximal concentrations of 10 μM, followed by incubation at 37° C. for 2 days. The wells were fixed with 2% PFA in PBS, and stained by 5 μg/ml of DAPI. After >30 min of incubation in a dark environment, the plates were read on an ImageXpress MicroXL microscope (Molecular Devices). The images were analyzed to quantify parasites as well host cells.

[3] = tested on: T. b. brucei procyclic forms; test: Growth of axenic cultures of T. b. brucei procyclic forms (PCFs); format: cell-based, Trypanosoma brucei brucei; conditions: Trypanosoma brucei, axenic culture; read-out: EC50 T. b. brucei PCF
[4] = tested on: T. b. brucei bloodstream forms; test: Growth of axenic cultures of T. b. brucei bloodstream forms (BSFs); conditions: Trypanosoma brucei, read-out: EC50 T. b. brucei BSF, axenic culture
cruzain [5] = target: T1, cruzain; test: Kinetic parameters of peptide substrates for cruzain; format: biochemical; conditions: for Km / kcat / kcat/Km: pH 7.5, 25° C., 10% DMSO; for kcat rel: relative to Cbz-Phe-Arg-AMC
Procedure: All enzyme assays were performed at 25° C. Initial rates of the peptidolytic reaction catalyzed by cruzain were measured by monitoring the fluorescence generated by cleavage of the dipeptide-AMC bond. Assays were conducted in 96-well plates (Greiner; flat-bottom, clear black plates) in a total volume of 250 μL, containing either 50 mM MES (pH 7.5), 50 mM TAPSO, 100 mM DEA, 1 mM CHAPS, 1 mM Na2EDTA, 5 mM DTT, and 10% DMSO (v/v) or 50 mM sodium acetate (pH 5.5), 50 mM MES, 100 mM TEA, 1 mM CHAPS, 1 mM Na2EDTA, 5 mM DTT, and 10% DMSO (v/v). Substrates were dissolved in 100% DMSO and were then diluted 10-fold such that when added to reaction mixtures, final DMSO concentration was 10% (v/v). Reactions were initiated with the addition of 1-10 μL of cruzain (final concentrations: 0.1-3.0 nM (preincubation studies)). Fluorescence was measured on either a SpectraMax M5 (Molecular Devices) or a Synergy HTX (BioTek, Winooski, VT) microplate reader (λex=360 nm, λem=460 nm). Initial rates were determined from continuous kinetic time courses and calculated from the earliest time points, typically at less than 10 min.
Initial velocity data for cruzain-catalyzed reactions of fluorogenic peptide substrates were determined by fitting to eq 1 using GraphPad Prism 6.0 or SigmaPlot 12.0. For eq 1, kcat is the turnover number, [E]t is the concentration of active sites of cruzain, and Ka is the Michaelis constant for the substrate A. Cruzain concentrations were determined by spectrophotometric analysis of purified sample solutions as described.^44

[6] = Thiolation of inhibitors with glutathione, LCMS; format: physicochemical; conditions: 1 mM glutathione, 0.5 mM compound, Tris pH 8.0, 10% DMSO, room temperature
Procedure: Samples were analyzed by HPLC-MS (as described above) by injecting 0.01 mL aliquots onto a Luna […] C18(2) 100 Å, 4.6 mm, 50 mm column (Phenomenex) using the HPLC method described in the chemistry section at 0-6 h time points. […] Integration of the chromatographic peaks of the inhibitors and their GSH adducts at each time point was used to determine the rate of GSH adduct formation.

[7] = obtained >10 minutes following initiation of reaction by addition of enzyme, read-out: Ki* Cruzain
[8] = Trypanosoma cruzi, C2C12, C2C12 murine cardiomyoblasts
[9] = apparent tight-binding inhibition constant, 25° C., read-out: Ki*

T1 sequence (P25779 123-467 limits assumed): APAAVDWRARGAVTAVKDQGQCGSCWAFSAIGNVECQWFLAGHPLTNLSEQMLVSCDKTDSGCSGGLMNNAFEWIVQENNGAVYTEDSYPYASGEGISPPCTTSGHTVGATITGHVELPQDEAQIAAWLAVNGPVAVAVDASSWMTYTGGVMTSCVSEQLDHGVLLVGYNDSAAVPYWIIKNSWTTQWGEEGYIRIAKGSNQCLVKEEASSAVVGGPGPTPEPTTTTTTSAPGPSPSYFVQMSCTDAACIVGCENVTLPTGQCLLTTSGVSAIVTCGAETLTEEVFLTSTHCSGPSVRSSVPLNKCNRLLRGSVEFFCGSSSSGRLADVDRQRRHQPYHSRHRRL
Sequence of human cathepsin L (P07711 114-333): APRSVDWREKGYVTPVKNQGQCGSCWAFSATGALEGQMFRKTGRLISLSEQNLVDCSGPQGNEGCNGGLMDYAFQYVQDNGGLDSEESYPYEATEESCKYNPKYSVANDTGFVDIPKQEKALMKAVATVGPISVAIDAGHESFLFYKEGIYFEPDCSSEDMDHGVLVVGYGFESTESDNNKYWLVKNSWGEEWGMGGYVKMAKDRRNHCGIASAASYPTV

Cc1ccc2c(c1)C[C@H](NC(=O)[C@H](Cc1ccccc1)NC(=O)OCc1ccccc1)C(O)O2 (stereo partly drawn) [Compound 32, Benzyl ((2S)-1-(((3S)-2-hydroxy-6-methylchroman-3-yl)amino)-1-oxo-3-phenylpropan-2-yl)carbamate]
Ki (cruzain [1]; Ki* Cruzain, obtained >10 minutes following initiation of reaction by addition of enzyme): 0.1 µM | Ki (cruzain [1]; [7]): 0.103 ± 0.005 µM | Ki (human cathepsin L; pH 5.5, 25° C., read-out: Ki* hCatL): 0.058 ± 0.002 µM | Ki (human cathepsin B; pH 5.5, 25° C., read-out: Ki* hCatB): 6.1 ± 0.9 µM | Ki (SARS-CoV-2 3CL protease; pH 7.5): > 10 µM | EC50 ([2]; C2C12 murine cardiomyoblasts): 3 to 5.7 µM | EC50 [2, 8]: 5.7 ± 0.6 µM | EC50 [3]: 7 µM | EC50 [4]: 0.5 µM

Cc1cc(=O)oc2cc(NC(=O)[C@H](CCCN=C(N)N)NC(=O)[C@H](Cc3ccccc3)NC(=O)OCc3ccccc3)ccc12 [Compound S1, Cbz-Phe-Arg-AMC] (Cbz-Phe-Arg-{AMC})
Km (human cathepsin L; pH 5.5): 2.9 µM | Km (human cathepsin B; pH 5.5): 150 µM | Km (cruzain [5]): 0.89 ± 0.09 µM | kcat (cruzain [5]): 9.6 ± 0.2 s⁻¹ | kcat/Km (cruzain [5]): 1.1e+07 ± 1e+06 M⁻¹ s⁻¹ | Km (cruzain [5]; listed as Cbz-Phe-Arg-AMC): 0.9 µM | kcat/Km (cruzain [5]; listed as Cbz-Phe-Arg-AMC): 1.1e+07 M⁻¹ s⁻¹ | kcat rel (cruzain [5]): 1.00

COc1ccccc1C[C@@H](C=O)NC(=O)[C@H](Cc1ccccc1)NC(=O)OCc1ccccc1 [Compound 29] (Cbz-Phe-[Phe(2-OMe)]-aldehyde)
Ki (cruzain [1]; [7]): 0.022 µM | Ki (SARS-CoV-2 3CL protease): > 10 µM

C[n+]1ccsc1/C=C/[C@H](Cc1ccccc1)NC(=O)[C@H](Cc1ccccc1)NC(=O)OCc1ccccc1.[I-] [Compound 26, 2-((S,E)-3-((S)-2-(((Benzyloxy)carbonyl)amino)-3-phenylpropanamido)-4-phenylbut-1-en-1-yl)-3-methylthiazol-3-ium Iodide]
Ki (cruzain [1]; [9]): 0.94 ± 0.06 µM | Rate of Thiolation, k [6]: 0.25 ± 0.083 M⁻¹ s⁻¹

NCCCC[C@@H](/C=C/c1ccccn1)NC(=O)[C@H](Cc1ccccc1)NC(=O)OCc1ccccc1 [Compound 20, (S,E)-5-((S)-2-(((Benzyloxy)carbonyl)amino)-3-phenylpropanamido)-7-(pyridin-2-yl)hept-6-en-1-aminium Chloride]
Ki (cruzain [1]; apparent initial inhibition constant, 25° C., read-out: Ki): 17.3 ± 0.3 µM | Ki (cruzain [1]; [9]): 0.87 µM | EC50 [2, 8]: 5 to 8 µM

O=C(N[C@@H](Cc1ccccc1)C(=O)N[C@H](/C=C/c1nccs1)Cc1ccccc1)OCc1ccccc1 [Compound 25, Benzyl ((S)-1-Oxo-3-phenyl-1-(((S,E)-1-phenyl-4-(thiazol-2-yl)-but-3-en-2-yl)amino)propan-2-yl)carbamate]
Ki (cruzain [1]; [9]): 1.71 µM | Rate of Thiolation, k [6]: Negligible

Cc1cc(=O)oc2cc(NC(=O)C(CCc3ccccc3)NC(=O)C(CC(C)C)NC(=O)OCc3ccccc3)ccc12 (stereo not drawn) [Compound S3, Cbz-Leu-hPhe-AMC] (Cbz-Leu-[hPhe]-{AMC}; configuration not given here)
Km (cruzain [5]): 0.8 ± 0.2 µM | kcat (cruzain [5]): 3.0 ± 0.2 s⁻¹ | kcat/Km (cruzain [5]): 4e+06 ± 1e+06 M⁻¹ s⁻¹ | kcat rel (cruzain [5]): 0.21
